Test: Stability of crystal form C on drying (XRPD)
Assay type: physicochemical
Excerpt: The sample was subjected to a TGA test. From the above results, it is speculated that the crystal form C is an unstable channel hydrate that is prone to crystal transformation during drying and placement, making the preparation of a pure phase difficult.

CCc1nc(-c2ccc(-c3ccc(CCC(N)(CO)CO)cc3)cc2)co1.Cl [crystal form C, 2-amino-2-{2-(4'-(2-ethyloxazol-4-yl)-[1,1'-biphenyl]-4-yl)ethyl}-1,3-propylene glycol hydrochloride]
crystal form after drying (XRPD) (purged with nitrogen at room temperature for 3 h): partially crystal transformed into the crystal form A | crystal form after drying (XRPD) (vacuum at 50 °C under reduced pressure, dried overnight): partially crystal transformed into a crystal form A

— patent EP4640674A1, “CRYSTAL FORMS OF ETHOXIMOD, PREPARATION METHOD THEREFOR AND USE THEREOF” (Jiankuan (Suzhou) Biotechnology Co., Ltd, priority 2022, dated 2024)
